Positions count from the first letter of the chain named. Activity calls are given as the source filed them. No cut-off for these calls is given here.
Columns and labels:
[1] = molecular target: T1, Heat shock factor protein 1 (Homo sapiens) (UniProt Q00613); test: Reduction of HSP1 stability in human NCI-H460 cells assessed as protein degradation at 10 ug/mL up to 9 hrs by Western blot analysis; type: cell-based
T1 sequence (whole entry): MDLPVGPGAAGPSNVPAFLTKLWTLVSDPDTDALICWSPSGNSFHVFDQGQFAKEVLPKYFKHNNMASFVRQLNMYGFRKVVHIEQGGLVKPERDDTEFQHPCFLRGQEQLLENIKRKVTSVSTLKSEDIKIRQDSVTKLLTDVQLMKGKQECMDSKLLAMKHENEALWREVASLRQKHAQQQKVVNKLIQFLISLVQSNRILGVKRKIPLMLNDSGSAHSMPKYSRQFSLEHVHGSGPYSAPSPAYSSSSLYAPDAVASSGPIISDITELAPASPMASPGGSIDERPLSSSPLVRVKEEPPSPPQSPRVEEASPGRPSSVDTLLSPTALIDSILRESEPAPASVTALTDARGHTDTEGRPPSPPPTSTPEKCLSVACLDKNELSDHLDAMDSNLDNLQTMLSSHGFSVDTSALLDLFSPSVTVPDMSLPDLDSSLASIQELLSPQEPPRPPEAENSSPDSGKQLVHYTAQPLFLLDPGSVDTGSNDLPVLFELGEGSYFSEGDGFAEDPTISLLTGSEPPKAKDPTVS

[2] = molecular target: T1, Heat shock factor protein 1 (Homo sapiens); test: Inhibition of HSP1 activity in human NCI-H460 cells assessed as reduction of hsp25 promoter activity after 12 hrs by luciferase reporter gene assay; type: cell-based
[3] = molecular target: T1, Heat shock factor protein 1 (Homo sapiens); test: Inhibition of HSP1 activity in human NCI-H460 cells assessed as reduction of hsp70 promoter activity after 12 hrs by luciferase reporter gene assay; type: cell-based
[4] = molecular target: T2, Heat shock factor protein 1 (Mus musculus) (UniProt P38532); test: Inhibition of HSP1 activity in mouse MEF assessed as reduction of hsp25 promoter activity at 5 to 100 uM after 12 hrs by luciferase reporter gene assay
T2 sequence (whole entry): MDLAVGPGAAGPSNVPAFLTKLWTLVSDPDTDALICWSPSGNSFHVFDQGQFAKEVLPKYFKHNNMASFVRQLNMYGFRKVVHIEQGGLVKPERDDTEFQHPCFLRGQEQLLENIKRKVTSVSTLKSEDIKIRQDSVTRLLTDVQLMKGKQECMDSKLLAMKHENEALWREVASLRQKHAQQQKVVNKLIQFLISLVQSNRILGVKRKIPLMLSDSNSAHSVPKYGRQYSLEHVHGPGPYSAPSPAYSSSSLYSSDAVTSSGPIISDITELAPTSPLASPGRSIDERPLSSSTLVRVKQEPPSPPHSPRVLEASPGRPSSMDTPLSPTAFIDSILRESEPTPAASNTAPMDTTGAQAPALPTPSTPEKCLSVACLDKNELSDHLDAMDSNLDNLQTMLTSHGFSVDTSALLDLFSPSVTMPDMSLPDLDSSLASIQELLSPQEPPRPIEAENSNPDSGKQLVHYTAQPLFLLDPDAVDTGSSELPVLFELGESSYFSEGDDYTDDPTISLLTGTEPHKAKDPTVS

[5] = molecular target: T2, Heat shock factor protein 1 (Mus musculus); test: Inhibition of HSP1 activity in mouse MEF assessed as reduction of hsp70 promoter activity at 5 to 100 uM after 12 hrs by luciferase reporter gene assay
[6] = molecular target: T1, Heat shock factor protein 1 (Homo sapiens); test: Inhibition of HSP1 activity in human NCI-H460 cells assessed as reduction of HSP27 mRNA expression at 1 to 20 uM after 12 hrs by qRT-PCR analysis; type: cell-based
[7] = molecular target: T1, Heat shock factor protein 1 (Homo sapiens); test: Inhibition of HSP1 activity in human NCI-H460 cells assessed as reduction of HSP70 mRNA expression at 1 to 20 uM after 12 hrs by qRT-PCR analysis; type: cell-based
[8] = molecular target: T1, Heat shock factor protein 1 (Homo sapiens); test: Inhibition of HSP1 activity in human NCI-H460 cells assessed as reduction of HSP1 mRNA expression at 1 to 20 uM after 12 hrs by qRT-PCR analysis; type: cell-based
[9] = molecular target: T1, Heat shock factor protein 1 (Homo sapiens); test: Inhibition of HSP1 activity in human NCI-H460 cells assessed as reduction of HSP27 mRNA expression at 20 uM up to 24 hrs by qRT-PCR analysis; type: cell-based
[10] = molecular target: T1, Heat shock factor protein 1 (Homo sapiens); test: Inhibition of HSP1 activity in human NCI-H460 cells assessed as reduction of HSP70 mRNA expression at 20 uM up to 24 hrs by qRT-PCR analysis; type: cell-based
[11] = molecular target: T1, Heat shock factor protein 1 (Homo sapiens); test: Inhibition of HSP1 activity in human NCI-H460 cells assessed as reduction of HSP1 mRNA expression at 20 uM up to 24 hrs by qRT-PCR analysis; type: cell-based
[12] = molecular target: T1, Heat shock factor protein 1 (Homo sapiens); test: Inhibition of HSP1 activity in human NCI-H460 cells assessed as reduction of HSP25 protein expression after 12 hrs by Western blot analysis; type: cell-based
[13] = molecular target: T1, Heat shock factor protein 1 (Homo sapiens); test: Inhibition of HSP1 activity in human NCI-H460 cells assessed as reduction of HSP70 protein expression after 12 hrs by Western blot analysis; type: cell-based
[14] = molecular target: T1, Heat shock factor protein 1 (Homo sapiens); test: Inhibition of HSP1 activity in human NCI-H460 cells assessed as reduction of HSP1 protein expression after 12 hrs by Western blot analysis; type: cell-based
[15] = molecular target: T1, Heat shock factor protein 1 (Homo sapiens); test: Inhibition of HSP1 activity in human NCI-H460 cells assessed as reduction of HSP25 protein expression at 20 uM by Western blot analysis; type: cell-based; conditions: TDE = time-dependent effect
[16] = molecular target: T1, Heat shock factor protein 1 (Homo sapiens); test: Inhibition of HSP1 activity in human NCI-H460 cells assessed as reduction of HSP70 protein expression at 20 uM by Western blot analysis; type: cell-based; conditions: TDE = time-dependent effect
[17] = molecular target: T1, Heat shock factor protein 1 (Homo sapiens); test: Inhibition of HSP1 activity in human NCI-H460 cells assessed as reduction of HSP1 protein expression at 20 uM by Western blot analysis; type: cell-based; conditions: TDE = time-dependent effect
[18] = molecular target: T1, Heat shock factor protein 1 (Homo sapiens); test: Reduction of HSP1 stability in human NCI-H460 cells assessed as protein degradation at 10 uM up to 9 hrs by Western blot analysis in presence of cyclohexamide; type: cell-based
[19] = molecular target: T1, Heat shock factor protein 1 (Homo sapiens); test: Induction of HSP1 dephosphorylation at S230, S303/307, and S326 in human NCI-H460 cells after 24 hrs by Western blot analysis; type: cell-based
[20] = test system: T3, Heat shock factor protein 1 (Homo sapiens), Q00613 [S326E]; test: Reduction of HSP1 phosphorylated at S326E mutant stability in human NCI-H460 cells up to 7.5 hrs by Western blot analysis in presence of cyclohexamide; type: cell-based
T3 sequence (whole entry): T1 sequence (whole entry) with S326E

[21] = test system: T4, Heat shock factor protein 1 (Homo sapiens), Q00613 [S326A]; test: Reduction of HSP1 dephosphorylated at S326A mutant stability in human NCI-H460 cells up to 7.5 hrs by Western blot analysis in presence of cyclohexamide; type: cell-based
T4 sequence (whole entry): T1 sequence (whole entry) with S326A

NCI-H460 [22] = test: Cytotoxicity against human NCI-H460 cells up to 100 uM after 24 hrs by MTT assay; type: functional, cell-based
NCI-H460 [23] = test: Induction of apoptosis in human NCI-H460 cells assessed as cleaved PARP and caspase 3 level after 12 hrs; type: functional, cell-based
NCI-H460 [24] = test: Induction of apoptosis in human NCI-H460 cells assessed as cleaved PARP and caspase 3 level at 20 uM; type: functional, cell-based; conditions: TDE = time-dependent effect
NCI-H460 [25] = test: Induction of apoptosis in human NCI-H460 cells assessed as cyclin D and cyclin E level after 12 hrs; type: functional, cell-based
NCI-H460 [26] = test: Induction of apoptosis in human NCI-H460 cells assessed as cyclin D and cyclin E level at 20 uM; type: functional, cell-based; conditions: TDE = time-dependent effect
NCI-H460 [27] = test: Cytotoxicity against human NCI-H460 cells expressing siHSF1 up to 100 uM after 24 hrs by MTT assay; type: functional, cell-based
NCI-H460 [28] = test: Induction of apoptosis in human NCI-H460 cells expressing siHSF1 assessed as cleaved PARP and caspase 3 level up to 20 uM after 12 hrs; type: functional, cell-based
NCI-H460 [29] = test: Cytotoxicity against HSF1 deficient human NCI-H460 cells up to 100 uM after 24 hrs by MTT assay; type: functional, cell-based

For `C[C@@H]1C[C@@H]([C@H](O)CC2CC(=O)NC(=O)C2)C(=O)[C@@H](C)C1`, the Activity [1] was “Active”.
With `Oc1ccc(Cc2ccc(O)c(Cc3ccc(O)cc3)c2)cc1` the inhibition [2] was “Dose-dependent effect”, the inhibition [3] was “Dose-dependent effect” and the inhibition [4] was “inactive”. For the same compound, the inhibition [5] was “inactive”, the inhibition [6] was “Active” and the inhibition [7] was “Active”. The inhibition [8] was “inactive”, the inhibition [9] was “Active” and the inhibition [10] was “Active”. The inhibition [11] was “inactive”, the inhibition [12] was “Dose-dependent effect” and the inhibition [13] was “Dose-dependent effect”. For the same compound, the inhibition [14] was “Dose-dependent effect”, the inhibition [15] was “tde” and the inhibition [16] was “tde”. For the same compound, the inhibition [17] was “tde”, the Activity [18] was “Active” and the Activity [19] was “Dose-dependent effect”. The Activity [20] was “Active”, the Activity [21] was “Active” and the Activity (NCI-H460 [22]) was “Active”. For the same compound, the Activity (NCI-H460 [23]) was “Dose-dependent effect”, the Activity (NCI-H460 [24]) was “tde” and the Activity (NCI-H460 [25]) was “Dose-dependent effect”. For the same compound, the Activity (NCI-H460 [26]) was “tde”, the Activity (NCI-H460 [27]) was “inactive” and the Activity (NCI-H460 [28]) was “Active”. The Activity (NCI-H460 [29]) was “Active”.
